Assays:
phytopathogens = details: in vitro, complete ionization to an inactive carboxylate ion; cited from earlier work
[1] = test system: Fusarium oxysporum sub sp. cubense; experiment: Antimicrobial MIC, agar/disc diffusion; format: cell-based; details: 27° C. for 72 hr
Experimental: (§1) Assay plates were incubated at 28° C. for 3 days to observe the zone of growth-inhibition of test microorganisms.
(§2) Test compound was dissolved in chloroform at various concentrations, separately loaded on to sterile filter paper discs (Whatman No.1, 6 mm diameter) and placed on the surface of agar plates pre-inoculated with the test pathogens. Assay plates were incubated at 27° C. for 72 hr for fungi and 27° C. to about 37° C. for 48 hr for bacteria.

C. falcatum = experiment: Antimicrobial MIC, agar/disc diffusion; format: cell-based; details: 27° C. for 72 hr
Experimental: as §1, §2

Pseudomonas aeruginosa = experiment: Antimicrobial MIC, agar/disc diffusion; format: cell-based; details: 27° C. to about 37° C. for 48 hr
Experimental: as §1, §2

Botrytis cinera = experiment: Antimicrobial MIC, agar/disc diffusion; format: cell-based; details: 27° C. for 72 hr
Experimental: as §1, §2

Macrophomina phaeseolina = experiment: Antimicrobial MIC, agar/disc diffusion; format: cell-based; details: 27° C. for 72 hr
Experimental: as §1, §2

Sarocladium oryzae = experiment: Antimicrobial MIC, agar/disc diffusion; format: cell-based; details: 27° C. for 72 hr
Experimental: as §1, §2

Staphylococcus aureus = experiment: Antimicrobial MIC, agar/disc diffusion; format: cell-based; details: 27° C. to about 37° C. for 48 hr
Experimental: as §1, §2

Escherichia coli = experiment: Antimicrobial MIC, agar/disc diffusion; format: cell-based; details: 27° C. to about 37° C. for 48 hr
Experimental: as §1, §2

Rhizoctonia solani = experiment: Antimicrobial MIC, agar/disc diffusion; format: cell-based; details: 27° C. for 72 hr
Experimental: as §1, §2

C. capsici = experiment: Antimicrobial MIC, agar/disc diffusion; format: cell-based; details: 27° C. for 72 hr
Experimental: as §1, §2

[2] = test system: Colletotrichum gleosporoides; experiment: Antimicrobial MIC, agar/disc diffusion; format: cell-based; details: 27° C. for 72 hr
Experimental: as §1, §2

Salmonella typhimurium = experiment: Antimicrobial MIC, agar/disc diffusion; format: cell-based; details: 27° C. to about 37° C. for 48 hr
Experimental: as §1, §2

cell lines = experiment: MTT cytotoxicity assay; format: cell-based; design: dose or concentration left out as unconfirmed; details: average of three replicates
Experimental: (§3) At the end of incubation, 20 μL MTT (5 mg/mL) was added and cells were incubated at 37° C. After 4 hr, MTT was removed and 100 μL of DMSO was added. Cell viability was determined by measuring the absorbance at a test wavelength of 570 nm.
as §3, with “Cytotoxycity of dimer of phenazine-1-carboxylic acid natural product against cell lines was determined by MTT assay. […] At” for “At”

[3] = test system: plant, animal and human pathogens; experiment: Antimicrobial activity in acidic and alkaline pH; format: cell-based; details: in vitro
Experimental: as §1, §2

| Compound | effectiveness in alkaline pH (phytopathogens) | MIC [1] | MIC (C. falcatum) | MIC (Pseudomonas aeruginosa) | MIC (Botrytis cinera) | MIC (Macrophomina phaeseolina) | MIC (Sarocladium oryzae) | MIC (Staphylococcus aureus) | MIC (Escherichia coli) | MIC (Rhizoctonia solani) | MIC (C. capsici) | MIC [2] | MIC (Salmonella typhimurium) | OD @ 570 nm (cell lines; concentration 1, 24 hr at 37° C.) | OD @ 570 nm (cell lines; concentration 10, 24 hr at 37° C.) | OD @ 570 nm (cell lines; concentration 25, 24 hr at 37° C.) | OD @ 570 nm (cell lines; concentration 50, 24 hr at 37° C.) | antimicrobial activity [3] |
| --- | --- | --- | --- | --- | --- | --- | --- | --- | --- | --- | --- | --- | --- | --- | --- | --- | --- | --- |
| O=C(O)c1cccc2nc3ccccc3nc12 [PCA, phenazine 1-carboxylic acid] | ineffective |  |  |  |  |  |  |  |  |  |  |  |  |  |  |  |  |  |
| dimer of phenazine-1-carboxylic acid |  | 7 µg/mL | 5 µg/mL | >90 µg/mL | 14 µg/mL | 12 µg/mL | 3 µg/mL | >120 µg/mL | >100 µg/mL | 2 µg/mL | 7 µg/mL | 7 µg/mL | >120 µg/mL | 0.531 | 0.472 | 0.366 | 0.285 | showed antimicrobial activity |
